Experimental findings from ChEMBL document CHEMBL1126379, “Pyrrole analogues of the pyrrolidinone moiety of the potassium channel activator cromakalim as relaxants of guinea pig trachealis” (Bioorg Med Chem Lett, 1992) are described below.

The structures appear in SMILES notation.

The species entered for experiment [1] is Cavia porcellus. Put plainly: Inhibition of tone in guinea pig trachealis. Format: functional.
Experiment [2] is filed under the species Cavia porcellus. Kind of experiment: Relaxant activity expressed as in vitro inhibition of tone in guinea pig trachealis. The experiment is classed as functional.

The compound `CC1(C)C=C(n2cccc2)c2cc(C#N)ccc2O1` displayed an Intrinsic activity in experiment [1] of 0.78. The midpoint of inhibition in experiment [2], the IC50, lay at 4080 nM.

For `CC1(C)Oc2ccc(C#N)cc2[C@@H](N2CCCC2=O)[C@@H]1O` [CROMAKALIM], the Intrinsic activity in experiment [1] is reported as 0.89.

The compound `CC1(C)C=C(n2cccc2C(=O)C(F)(F)F)c2cc(C#N)ccc2O1` showed an Intrinsic activity in experiment [1] of 0.91. For the same compound, in experiment [2], the IC50 was determined as 690 nM.

Take `CC(=O)c1cccn1C1=CC(C)(C)Oc2ccc(C#N)cc21`: the Intrinsic activity in experiment [1] is on record as 0.22. Moreover, in experiment [2], the IC50 is > 20000 nM.

Consider `CC1(C)Oc2ccc(C#N)cc2[C@@H](n2cccc2[N+](=O)[O-])[C@@H]1O`, for which the Intrinsic activity in experiment [1] is 0.88. For the same compound, the IC50 in experiment [2] was 370 nM.

In experiment [1], `CC1(C)C=C(n2cccc2[N+](=O)[O-])c2cc(C#N)ccc2O1` registered an Intrinsic activity of 0.88. 690 nM corresponded to half-maximal inhibition in experiment [2] (IC50).

`CC(=O)N[C@@H]1c2cc(C#N)ccc2OC(C)(C)[C@H]1O`: the Intrinsic activity in experiment [1] was 0.78. In experiment [2], this compound came in with a 50% inhibitory concentration (IC50) of 2900 nM.

On to `CC1(C)C=C(n2ccc([N+](=O)[O-])c2)c2cc(C#N)ccc2O1`, for which the Intrinsic activity in experiment [1] was determined as 0.79. The compound further registered an IC50 in experiment [2] of 1020 nM.

In the case of `CC1OC2=C(c3cc(C#N)ccc3OC2(C)C)n2cccc21` (stereo not drawn), the Intrinsic activity in experiment [1] turned out to be 0.8. Inhibition in experiment [2] was half-maximal at 1370 nM (IC50).

The compound `C/C(=C\C#N)N[C@@H]1c2cc(C#N)ccc2OC(C)(C)[C@H]1O` came in with an Intrinsic activity in experiment [1] of 0.96. The same compound returned an IC50 in experiment [2] of 1230 nM.

On to `CC1(C)Oc2ccc(C#N)cc2[C@H]2n3cccc3[C@@H](C(F)(F)F)O[C@]21O`, for which the Intrinsic activity in experiment [1] was found to be 0.96. In experiment [2], this compound came in with an IC50 of 80 nM.

`CCc1cccn1C1=CC(C)(C)Oc2ccc(C#N)cc21` displayed an Intrinsic activity in experiment [1] of 0.32. Also, the IC50 in experiment [2] is > 20000 nM.

`CC1(C)Oc2ccc(C#N)cc2[C@H]2n3cccc3CO[C@]21O` had an Intrinsic activity in experiment [1] of 0.85. This compound also yielded an IC50 in experiment [2] of 10400 nM.

`CC1(C)Oc2ccc(C#N)cc2C2=C1OC(c1ccccc1)c1cccn12` (stereo not drawn) showed an Intrinsic activity in experiment [1] of 0.21. In addition, the IC50 in experiment [2] is > 2000 nM.

Consider `CC1(C)Oc2ccc(C#N)cc2[C@@H](n2cccc2C(=O)C(F)(F)F)[C@@H]1O`, for which the Intrinsic activity in experiment [1] amounted to 0.28. Moreover, the IC50 in experiment [2] was > 20000 nM.

For `CC1(C)Oc2ccc(C#N)cc2[C@@H](n2cccc2)[C@@H]1O`, in experiment [1], the Intrinsic activity came out at 0.19. Moreover, the IC50 in experiment [2] is > 20000 nM.

`CC1(C)C=C(n2ccc(C#N)c2)c2cc(C#N)ccc2O1` displayed an Intrinsic activity in experiment [1] of 0.89. Further, the IC50 in experiment [2] came out at 2400 nM.

For orientation: IC50 means the concentration that inhibits the measured activity by half. High values mean lower potency, low ones higher potency.
